{"source": "patent US20230165818A1", "about": "“COMPOSITION FOR REDUCING HEPATIC TRIGLYCERIDES AND/OR IMPROVING GLUCOSE METABOLISM” (Compagnie Gervais Danone, priority 2020, published 2023)", "key": {"[1]": {"system": "FAO rat hepatocytes", "assay": "Hepatic glucose production (HGP) in FAO cells", "format": "cell-based", "method": "FAO rat hepatocytes were maintained in RPMI 1640 medium (Invitrogen) supplemented with 10% FBS. Cells were maintained in this medium 48 h before treatment. They were then serum-deprived overnight for 16 h with or without insulin (1 nM) and with HICA, HIVA or HMVA product at 10 nM, 100 nM, 1 μM, 10 μM, 100 μM and 1 mM. The cells were washed three times with PBS and incubated with phenol red- and glucose-free DMEM medium supplemented with 20 mM sodium L-lactate and 2 mM sodium pyruvate for 5 h with or without insulin and the indicated study treatment. Cell supernatant was collected, and glucose concentration was measured with the Amplex-Red Glucose assay kit accordingly to the manufacturer's instructions (Invitrogen). Cells were lysed with 50 mM NaOH, and protein concentration was determined using a BCA protein assay kit to normalize glucose production."}, "[2]": {"system": "L6 myocytes", "assay": "Glucose uptake in L6 muscle cells", "format": "cell-based", "settings": "0.01, 0.1 or 1 μM, basal and insulin conditions (FIGS. 2G and H)", "method": "FIG. 2. (A) HGP of FAO cells treated with a 1 mM mixture of HICA: HIVA: HMVA at molar ratio 1:1:0.5 in basal condition. (B) HGP of FAO cells treated with a 1 mM mixture of HICA: HIVA: HMVA at molar ratio 1:1:0.5 in insulin condition. (C) HGP of FAO cells treated with 0.5 and 1 mM of HICA, leucine or combination of both in basal condition. (D) HGP of FAO cells treated with 0.5 and 1 mM of HICA, leucine or combination of both in insulin condition. (E) Glucose uptake of L6 muscle cells treated with a 0.1 or 1 μM mixture of HICA: HIVA: HMVA at molar ratio 1:1:0.5 in basal condition. (F) Glucose uptake of L6 cells treated with a 0.1 or 1 μM mixture of HICA: HIVA: HMVA at molar ratio 1:1:0.5 in insulin condition. (G) Glucose uptake of L6 cells treated with 0.01, 0.1 or 1 μM of HICA in basal condition. (H) Glucose uptake of L6 cells treated with 0.01, 0.1 or 1 μM of HICA in insulin condition.*p<0.05 versus control, **p<0.01 versus control, ***p<0.001 vs control, kp<0.05 versus Leu 0.5 mM, ^$ p<0.05 versus Leu 1 mM, ^$$ p<0.01 versus Leu 1 mM, ^$$$ p<0.001 versus Leu 1 mM. For panel C, D, G, H expressed in fold, basal and basal insulin are considered as a reference and represented by a dash line.\nThe Inventors elected to test the hypothesis that BCHA could exert direct effects in relevant cells. […]"}}, "data": [{"smiles": "CC(C)CC(O)C(=O)O", "note": "(stereo not drawn) [HICA, alpha-hydroxyisocaproic acid]", "values": [{"measurement": "effect on HGP in combination with leucine", "setting": "[1]; 0.5 and 1 mM HICA combined with leucine (FIGS. 2C and D)", "result": "competed the effect of its BCAA leucine precursor"}, {"measurement": "basal HGP", "setting": "[1]; 0.5 and 1 mM, basal condition (FIG. 2C)", "result": "dose-dependently inhibited"}, {"measurement": "insulin-suppressed HGP", "setting": "[1]; 0.5 and 1 mM, insulin condition (FIG. 2D)", "result": "dose-dependently inhibited"}, {"measurement": "glucose uptake, individual BCHA", "setting": "[2]", "result": "these effects appeared to be mostly explained by HICA"}]}]}
